Measurements published in PubChem BioAssay (NCI).
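96-well plates; 48 h exposure; 5 concentrations. Endpoints by linear interpolation between flanking doses. Not reached: highest tested concentration assigned. GI50: concentration for 50% inhibition of growth. TGI is the concentration that stops growth completely.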

Columns and labels:
Assay in all cases: NCI tumour cell line growth inhibition, 48 h
CAKI-1 renal = system: CAKI-1 renal
MALME-3M melanoma = system: MALME-3M melanoma
MCF7 breast = system: MCF7 breast
MOLT-4 leukemia = system: MOLT-4 leukemia
NCI-H460 lung = system: NCI-H460 lung
OVCAR-5 ovarian = system: OVCAR-5 ovarian
OVCAR-8 ovarian = system: OVCAR-8 ovarian
SK-MEL-2 melanoma = system: SK-MEL-2 melanoma
SNB-19 CNS = system: SNB-19 CNS
SR leukemia = system: SR leukemia

Structure (SMILES)	GI50 (CAKI-1 renal)	TGI (CAKI-1 renal)	GI50 (MALME-3M melanoma)	TGI (MALME-3M melanoma)	GI50 (MCF7 breast)	TGI (MCF7 breast)	GI50 (MOLT-4 leukemia)	TGI (MOLT-4 leukemia)	GI50 (NCI-H460 lung)	TGI (NCI-H460 lung)	GI50 (OVCAR-5 ovarian)	TGI (OVCAR-5 ovarian)	GI50 (OVCAR-8 ovarian)	TGI (OVCAR-8 ovarian)	GI50 (SK-MEL-2 melanoma)	TGI (SK-MEL-2 melanoma)	GI50 (SNB-19 CNS)	TGI (SNB-19 CNS)	GI50 (SR leukemia)	TGI (SR leukemia)
COCCn1cc(-c2nc(-c3cc4cccnc4[nH]3)cs2)c2cc(OC)ccc21	3.01 µM	> 82.4 µM	7.99 µM	> 80.6 µM	0.0433 µM	2.67 µM	4.24 µM	> 46.7 µM	1.1 µM	12.9 µM	0.524 µM	> 96.4 µM	3.56 µM	45.3 µM	3.05 µM	12.8 µM	6.48 µM	> 100 µM	1.21 µM	> 29.7 µM
Cc1cc2c(cc1C)[n+](=O)c(C(=O)c1ccccc1)c(C(F)F)n2[O-]	15.5 µM	71.7 µM	23.2 µM	62.9 µM	12.1 µM	41.1 µM	8.02 µM	43.1 µM	5 µM	> 100 µM	36.4 µM	> 100 µM	7.11 µM	> 100 µM	21.2 µM	78.3 µM	44.2 µM	> 100 µM	4.39 µM	98.4 µM
O=C1c2ccccc2C(=O)c2c(/C=C\N3CCCCC3)ccnc21		39.5 µM		1.67 µM		4.01 µM		41.1 µM		4.91 µM		16.2 µM		17.5 µM		14 µM		17.1 µM		35.9 µM
CCOc1ccc(NC2=CC(=O)C(=O)c3ccccc32)cc1		20.9 µM		3.56 µM		3.93 µM		80.1 µM		6.97 µM		9.46 µM		15.4 µM		16.2 µM		9.46 µM		17.6 µM
C=C1C[C@H](O)[C@H](Br)C(C)(C)[C@@]12CCC(C)=C(Cl)C2	0.133 µM	13.2 µM	0.31 µM	2.3 µM	0.275 µM	1.97 µM	0.229 µM	0.795 µM	0.263 µM	1.61 µM	0.342 µM	8.87 µM	0.416 µM	15.3 µM	0.422 µM	2.61 µM	0.683 µM	14.1 µM	0.237 µM	11.1 µM
CC(=O)N[C@@H](Cc1ccc(OP(=O)(O)O)cc1)C(=O)N[C@H]1CCC(=O)N2CCC[C@@H](C(=O)Nc3cccc4ccccc34)N2C1=O	> 25 µM	> 25 µM	> 25 µM	> 25 µM	> 25 µM	> 25 µM	> 25 µM	> 25 µM	> 25 µM	> 25 µM	> 25 µM	> 25 µM	> 25 µM	> 25 µM	> 25 µM	> 25 µM	> 25 µM	> 25 µM	> 25 µM	> 25 µM
NC(=S)N/N=C1\c2cc(Cl)ccc2-c2c1cc(Cl)cc2[N+](=O)[O-]	7.21 µM	> 100 µM	9.26 µM	87.4 µM	1.98 µM	16.8 µM	3.21 µM	23.6 µM	3.27 µM	20.7 µM	11 µM	> 100 µM	4.62 µM	> 100 µM	7.96 µM	89.8 µM	4.24 µM	> 100 µM	4.87 µM	> 100 µM
